Patent publication US20240116921A1, “LACTAM (HETERO)[…] DERIVATIVES AS INHIBITORS OF ERBB2” (EnLiven Therapeutics, Inc., priority 2020, published 2024)
pIC50: −log10 of the molar value.

Legend:
A431 = assay: Cell viability assay (CellTiter Glo), A431; format: cell-based; settings: Homo sapiens, A-431, A431 cells, 72 hours
Ba/F3 ERBB2-V777L = Ba/F3 ERBB2-V777L (Homo sapiens, UniProt P04626, V777L, cells depend on it); assay: Cell viability assay, Ba/F3 ERBB2-V777L; format: cell-based, mouse; settings: 72 hours, CellTiter Glo, read-out: IC50, cell viability, Ba/F3 ERBB2-V777L
Ba/F3 ERBB2-V777L, sequence (P04626 whole entry V777L): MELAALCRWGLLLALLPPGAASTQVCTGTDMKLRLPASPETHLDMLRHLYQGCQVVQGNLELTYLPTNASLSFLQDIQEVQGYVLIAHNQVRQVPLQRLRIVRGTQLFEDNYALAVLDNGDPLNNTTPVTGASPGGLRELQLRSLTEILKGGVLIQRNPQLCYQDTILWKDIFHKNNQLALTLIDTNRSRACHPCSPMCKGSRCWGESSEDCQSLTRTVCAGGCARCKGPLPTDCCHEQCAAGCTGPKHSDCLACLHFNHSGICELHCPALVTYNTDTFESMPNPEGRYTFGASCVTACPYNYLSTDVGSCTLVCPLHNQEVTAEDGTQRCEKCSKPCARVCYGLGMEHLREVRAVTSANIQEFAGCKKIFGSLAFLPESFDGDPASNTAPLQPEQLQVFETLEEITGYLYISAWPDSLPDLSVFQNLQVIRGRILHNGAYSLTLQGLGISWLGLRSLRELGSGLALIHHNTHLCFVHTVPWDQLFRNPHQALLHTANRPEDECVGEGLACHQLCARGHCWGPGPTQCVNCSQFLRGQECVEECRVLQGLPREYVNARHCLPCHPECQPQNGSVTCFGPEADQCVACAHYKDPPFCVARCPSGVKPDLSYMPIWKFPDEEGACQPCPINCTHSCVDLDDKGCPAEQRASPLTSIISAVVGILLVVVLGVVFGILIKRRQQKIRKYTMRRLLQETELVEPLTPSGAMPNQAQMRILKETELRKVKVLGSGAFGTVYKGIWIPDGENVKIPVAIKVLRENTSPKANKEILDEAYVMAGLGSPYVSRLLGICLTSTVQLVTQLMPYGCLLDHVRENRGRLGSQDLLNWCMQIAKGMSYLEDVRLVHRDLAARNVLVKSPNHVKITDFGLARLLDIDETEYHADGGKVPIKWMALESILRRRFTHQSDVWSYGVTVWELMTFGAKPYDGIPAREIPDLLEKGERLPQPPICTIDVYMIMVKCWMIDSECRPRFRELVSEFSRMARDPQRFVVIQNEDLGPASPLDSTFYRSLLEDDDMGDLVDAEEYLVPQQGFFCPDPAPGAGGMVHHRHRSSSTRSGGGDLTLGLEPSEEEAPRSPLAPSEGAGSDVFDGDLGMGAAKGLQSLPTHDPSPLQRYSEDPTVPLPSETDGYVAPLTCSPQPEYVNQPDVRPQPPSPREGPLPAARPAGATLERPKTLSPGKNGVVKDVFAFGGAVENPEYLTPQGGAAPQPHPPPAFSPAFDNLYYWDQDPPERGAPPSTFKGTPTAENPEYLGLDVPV
Description: (§1) Cells were treated with compounds, and cell viability was measured as a metric of kinase inhibition.
(§2) The Ba/F3 cell line is IL-3-dependent mouse cell line derived from the C3H mouse strain. Ba/F3 cell lines were engineered to express human ERBB2 or EGFR kinases, rendering the cells IL-3 independent. The lines were generated via retroviral transduction utilizing a Moloney murine leukemia virus (MMLV) promoter, and constructs are stably integrated into the cell genome. The sequences of the ERBB2 and EGFR genes used were NCBI Reference Sequences NM_004448.3 and NM_005228.3, respectively.
(§3) Similarly, Ba/F3 cell lines engineered to express EGFR, ERBB2, or ERBB2 mutants were grown, harvested, counted and seeded at 3000 cells per well in 96-well plates. A subset of wells contained media only (low control, “LC”).
(§4) Table B1 provides the growth media and number of cells seeded per well for the each cell line.
(§5) Plates were placed in a 37° C., 5% CO2 incubator for 72 hours. Plates were then removed from the incubator and equilibrated for 15 minutes at room temperature. 40 μl of CellTiter Glo reagent (Promega) was added to measure the relative level of metabolically active cells by quantifying intracellular ATP concentrations. Plates were incubated for 30 minutes at room temperature, and luminescence was measured. Percent viability was normalized to a vehicle control only using the following formula: % viability=100×(Lumsample−LumLC)/(LumHC−Lum^LC). Graphical curves were fitted using a nonlinear regression model with a sigmoidal dose response.

Ba/F3 ERBB2-L755S = Ba/F3 ERBB2-L755S (Homo sapiens, UniProt P04626, L755S, cells depend on it); assay: Cell viability assay, Ba/F3 ERBB2-L755S; format: cell-based, mouse; settings: 72 hours, CellTiter Glo, read-out: IC50, cell viability, Ba/F3 ERBB2-L755S
Description: as §1, §2, §3, §4, §5

BT-474 = assay: Cell viability assay (CellTiter Glo), BT-474; format: cell-based; settings: Homo sapiens; BT-474 cells, 72 hours, CellTiter Glo; read-out: IC50, cell viability, BT-474
Ba/F3 ERBB2-L869R = Ba/F3 ERBB2-L869R (Homo sapiens, UniProt P04626, L869R, cells depend on it); assay: Cell viability assay, Ba/F3 ERBB2-L869R; format: cell-based, mouse; settings: 72 hours, CellTiter Glo, read-out: IC50, cell viability, Ba/F3 ERBB2-L869R
Ba/F3 ERBB2-L869R, sequence (P04626 whole entry L869R): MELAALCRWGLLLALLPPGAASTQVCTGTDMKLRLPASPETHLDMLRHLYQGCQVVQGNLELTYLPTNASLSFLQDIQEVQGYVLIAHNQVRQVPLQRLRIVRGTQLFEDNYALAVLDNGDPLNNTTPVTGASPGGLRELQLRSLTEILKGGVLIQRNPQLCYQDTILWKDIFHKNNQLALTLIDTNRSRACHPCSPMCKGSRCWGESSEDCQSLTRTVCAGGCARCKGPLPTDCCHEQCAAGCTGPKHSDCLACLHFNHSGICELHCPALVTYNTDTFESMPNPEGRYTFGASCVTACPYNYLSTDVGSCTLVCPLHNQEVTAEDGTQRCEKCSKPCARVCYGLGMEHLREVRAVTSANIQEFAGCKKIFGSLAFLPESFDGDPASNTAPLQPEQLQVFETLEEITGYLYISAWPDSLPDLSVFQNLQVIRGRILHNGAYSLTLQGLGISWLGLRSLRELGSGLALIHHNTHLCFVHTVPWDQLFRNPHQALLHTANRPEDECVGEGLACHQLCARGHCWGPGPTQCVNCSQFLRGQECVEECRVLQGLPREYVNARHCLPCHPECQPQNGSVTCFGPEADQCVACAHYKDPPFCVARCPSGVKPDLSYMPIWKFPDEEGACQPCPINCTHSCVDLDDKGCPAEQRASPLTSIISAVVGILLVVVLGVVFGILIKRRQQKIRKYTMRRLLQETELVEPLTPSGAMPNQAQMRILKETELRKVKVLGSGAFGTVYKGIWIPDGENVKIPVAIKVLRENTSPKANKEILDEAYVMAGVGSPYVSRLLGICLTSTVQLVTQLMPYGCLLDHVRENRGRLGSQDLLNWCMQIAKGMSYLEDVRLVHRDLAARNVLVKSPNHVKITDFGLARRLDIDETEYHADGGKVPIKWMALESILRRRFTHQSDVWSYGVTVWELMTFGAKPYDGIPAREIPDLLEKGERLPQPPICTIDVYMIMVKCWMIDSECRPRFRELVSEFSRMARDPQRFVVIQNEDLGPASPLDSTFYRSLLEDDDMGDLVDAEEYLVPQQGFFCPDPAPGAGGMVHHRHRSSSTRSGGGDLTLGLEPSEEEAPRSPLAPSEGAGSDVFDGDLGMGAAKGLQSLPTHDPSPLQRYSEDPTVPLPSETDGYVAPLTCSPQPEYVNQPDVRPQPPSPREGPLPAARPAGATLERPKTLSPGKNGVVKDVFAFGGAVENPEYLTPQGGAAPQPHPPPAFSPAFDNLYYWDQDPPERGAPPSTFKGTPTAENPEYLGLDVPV
Description: as §1, §2, §3, §4, §5

[1] = target: Ba/F3 ERBB2-P780_Y781insGSP (Homo sapiens, UniProt P04626, DUP778-780, cells depend on it); assay: Cell viability assay, Ba/F3 ERBB2-P780_Y781insGSP; format: cell-based, mouse; settings: 72 hours, CellTiter Glo, read-out: IC50, cell viability, Ba/F3 ERBB2-P780_Y781insGSP
Description: as §1, §2, §3, §4
as §5, with “Percent viability was normalized to a vehicle control only using the following formula: % viability=100×(Lumsample−LumLC)/(LumHC−Lum^LC).” left out

[2] = target: T1, phosphorylated EGFR (pEGFR) (Homo sapiens, UniProt P00533); assay: Detection of phosphorylated EGFR (pEGFR) in EGF-stimulated A431 cells; format: cell-based; settings: A431 cells (10% FBS), 4 hours incubation, EGF 30 ng/mL 10 minutes, AlphaLISA
T1 construct: performed to measure phosphorylated EGFR levels using A431 cells (10% FBS); endogenous in cells; host or cells: A431
T1 sequence (P00533 25-1210): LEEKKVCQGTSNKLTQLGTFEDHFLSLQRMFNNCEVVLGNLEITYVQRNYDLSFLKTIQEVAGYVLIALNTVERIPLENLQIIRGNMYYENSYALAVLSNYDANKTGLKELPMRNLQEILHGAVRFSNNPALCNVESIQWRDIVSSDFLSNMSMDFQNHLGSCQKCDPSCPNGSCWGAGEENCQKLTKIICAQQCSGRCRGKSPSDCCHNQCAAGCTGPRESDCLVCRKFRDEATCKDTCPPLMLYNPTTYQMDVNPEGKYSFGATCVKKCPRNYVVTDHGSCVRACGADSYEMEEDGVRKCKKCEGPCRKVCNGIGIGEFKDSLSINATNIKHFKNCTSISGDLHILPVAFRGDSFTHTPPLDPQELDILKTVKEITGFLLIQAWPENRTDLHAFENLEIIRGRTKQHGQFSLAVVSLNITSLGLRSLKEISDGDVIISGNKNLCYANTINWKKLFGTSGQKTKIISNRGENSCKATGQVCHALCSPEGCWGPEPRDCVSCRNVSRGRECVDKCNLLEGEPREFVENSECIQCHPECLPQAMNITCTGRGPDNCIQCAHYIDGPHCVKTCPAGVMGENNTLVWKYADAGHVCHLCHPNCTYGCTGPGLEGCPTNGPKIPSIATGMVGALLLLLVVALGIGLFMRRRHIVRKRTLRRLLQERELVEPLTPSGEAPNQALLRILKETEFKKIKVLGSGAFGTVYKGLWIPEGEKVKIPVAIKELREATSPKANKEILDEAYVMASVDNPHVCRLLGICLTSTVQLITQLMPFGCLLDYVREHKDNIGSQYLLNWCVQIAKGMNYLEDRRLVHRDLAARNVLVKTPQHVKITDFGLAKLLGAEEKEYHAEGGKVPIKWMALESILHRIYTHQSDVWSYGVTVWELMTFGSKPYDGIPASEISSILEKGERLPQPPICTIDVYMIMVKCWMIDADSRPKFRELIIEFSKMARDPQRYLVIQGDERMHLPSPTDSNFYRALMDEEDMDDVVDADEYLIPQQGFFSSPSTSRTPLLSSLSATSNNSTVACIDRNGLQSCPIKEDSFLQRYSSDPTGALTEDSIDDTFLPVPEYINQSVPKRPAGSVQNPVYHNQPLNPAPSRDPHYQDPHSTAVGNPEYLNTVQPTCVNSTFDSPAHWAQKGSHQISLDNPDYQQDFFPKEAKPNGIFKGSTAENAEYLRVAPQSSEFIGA
In short: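 AlphaLISA read-out of EGFR phosphorylation after a 10-min EGF pulse (30 ng/mL final). A431 cells (10% FBS) had been exposed to compound for 4 h at 37 °C. IC50 was fitted from % inhibition normalised to DMSO and staurosporine control lysates.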

Ba/F3 ERBB2-T798M = Ba/F3 ERBB2-T798M (Homo sapiens, UniProt P04626, T798M, cells depend on it); assay: Cell viability assay, Ba/F3 ERBB2-T798M; format: cell-based, mouse; settings: 72 hours, CellTiter Glo, read-out: IC50, cell viability, Ba/F3 ERBB2-T798M
Description: as §1, §2, §3, §4, §5

[3] = target: Ba/F3 ERBB2-V777_G778insGC (Homo sapiens, UniProt P04626, INS778CG, cells depend on it); assay: Cell viability assay, Ba/F3 ERBB2-V777_G778insGC; format: cell-based, mouse; settings: 72 hours, CellTiter Glo, read-out: IC50, cell viability, Ba/F3 ERBB2-V777_G778insGC
Ba/F3 ERBB2-V777_G778insGC, sequence (P04626 with tags, fused parts or gaps INS778CG): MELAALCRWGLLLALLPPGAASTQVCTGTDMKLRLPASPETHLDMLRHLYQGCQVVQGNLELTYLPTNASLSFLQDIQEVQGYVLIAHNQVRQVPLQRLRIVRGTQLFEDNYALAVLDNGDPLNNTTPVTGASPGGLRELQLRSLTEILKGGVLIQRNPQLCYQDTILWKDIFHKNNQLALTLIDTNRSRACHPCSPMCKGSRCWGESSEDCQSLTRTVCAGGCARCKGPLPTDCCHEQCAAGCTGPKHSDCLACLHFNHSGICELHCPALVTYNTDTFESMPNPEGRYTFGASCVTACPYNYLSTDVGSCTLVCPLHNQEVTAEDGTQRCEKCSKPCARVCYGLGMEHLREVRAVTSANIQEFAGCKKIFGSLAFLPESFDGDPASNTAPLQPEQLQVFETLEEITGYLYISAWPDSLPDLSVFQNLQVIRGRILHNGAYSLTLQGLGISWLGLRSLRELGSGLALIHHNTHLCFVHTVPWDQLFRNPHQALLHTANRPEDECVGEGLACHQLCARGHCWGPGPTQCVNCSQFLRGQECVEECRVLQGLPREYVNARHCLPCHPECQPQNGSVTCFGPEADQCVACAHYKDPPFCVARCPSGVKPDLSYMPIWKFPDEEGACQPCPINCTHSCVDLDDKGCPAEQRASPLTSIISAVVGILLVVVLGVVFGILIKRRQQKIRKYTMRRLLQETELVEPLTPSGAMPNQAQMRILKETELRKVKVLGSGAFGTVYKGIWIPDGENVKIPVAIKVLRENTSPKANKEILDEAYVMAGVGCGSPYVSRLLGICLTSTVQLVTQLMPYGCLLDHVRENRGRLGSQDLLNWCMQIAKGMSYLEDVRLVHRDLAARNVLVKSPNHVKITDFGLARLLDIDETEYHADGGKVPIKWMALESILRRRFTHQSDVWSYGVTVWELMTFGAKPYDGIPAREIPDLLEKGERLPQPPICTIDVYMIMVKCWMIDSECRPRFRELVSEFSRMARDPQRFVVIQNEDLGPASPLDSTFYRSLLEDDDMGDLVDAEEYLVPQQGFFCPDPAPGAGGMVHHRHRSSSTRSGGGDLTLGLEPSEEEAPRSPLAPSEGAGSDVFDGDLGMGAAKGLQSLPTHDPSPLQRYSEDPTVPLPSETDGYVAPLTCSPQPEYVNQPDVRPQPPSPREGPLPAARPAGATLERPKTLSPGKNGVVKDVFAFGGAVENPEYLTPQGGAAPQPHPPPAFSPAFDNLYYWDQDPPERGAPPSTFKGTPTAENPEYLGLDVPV
Description: as §1, §2, §3, §4, §5

Ba/F3 ERBB2-G776VC = Ba/F3 ERBB2-G776VC (Homo sapiens, UniProt P04626, DELINS776-776VC, cells depend on it); assay: Cell viability assay, Ba/F3 ERBB2-G776VC; format: cell-based, mouse; settings: 72 hours, CellTiter Glo, read-out: IC50, cell viability, Ba/F3 ERBB2-G776VC
Description: as §1, §2, §3, §4, §5

Structure (SMILES) | pIC50 (A431) | GI50 (Ba/F3 ERBB2-V777L) [nM] | GI50 (Ba/F3 ERBB2-L755S) [nM] | pIC50 (BT-474) | GI50 (Ba/F3 ERBB2-L869R) [nM] | GI50 [1] [nM] | pIC50 [2] | GI50 (Ba/F3 ERBB2-T798M) [nM] | GI50 [3] [nM] | GI50 (Ba/F3 ERBB2-G776VC) [nM]
C=C1CCN(c2ccc3ncnc(Nc4ccc(Oc5ccn6ncnc6c5)c(C)c4)c3c2)C1=O [Compound 1, 1-[4-[(3-methyl-4-[[1,2,4]triazolo[1,5-a]pyridin-7-yloxy]phenyl)amino]quinazolin-6-yl]-3-methylidenepyrrolidin-2-one] | 5.24 | 0.41 | 13 | 8.13 | 3.6 | 3.4 | 5.91 | 151 | 0.82 | 16
C=C1CCN(c2ccc3ncnc(Nc4ccc(Oc5ccn6ccnc6c5)c(C)c4)c3c2)C1=O [Compound 4, 1-[4-[(4-[imidazo[1,2-a]pyridin-7-yloxy]-3-methylphenyl)amino]quinazolin-6-yl]-3-methylidenepyrrolidin-2-one] | 5.89 | 1.3 | 14 | 7.79 | 4.8 | 2.6 | 6.69 | 154 | 1.8 | 7.5
